Experiments:
[1] = system: preretinal NV in OIR mouse model; assay: Quantification of preretinal NV (H&E sections), OIR mouse model; type: in vivo, C57BL/6J mice; conditions: OIR mice, double intravitreal injection YC-1 100 μM, P17, n=8; DMSO 61
Method: (§1) Retinal NV was induced in newborn mice as described previously. Briefly, P7 mice were exposed with their nursing mother, for 5 days [between P7 and P12] to hyperoxic conditions, by incubating them in an airtight chamber [PROOX 110 chamber O2 controller; Biospherix Ltd., Redfield, N.Y.] ventilated by a mixture of O2 and air to a final oxygen fraction of 75±2%. These incubation conditions induced vaso-obliteration and subsequent cessation of vascular development in the capillary beds of the central retina. At P12, the mice were allowed to recover in normal room air conditions and maintained for another 5 days [till P17], the day in which peak disease occurs. A condition of relative hypoxia resulted between P12 and P17, and extensive retinal NV developed in 100% of the mice. […]
Quantification of preretinal NV on P17 mice was performed as previously described. Briefly, 6-μm-thick serial sections were stained with hematoxylin and Eosin (H&E), then examined and scored in masked fashion for the presence of all nuclei extending beyond the ILM into the vitreous from the retina, by using light microscopy (Zeiss Axiovert 135, Thornwood, N.Y.). Efficacy of treatment was calculated as the percentage of the average number of nuclei/section in the eyes of YC-1-treated mice vs. DMSO-treated retinas. A minimum of 10 sections at least 40 μm apart were evaluated and counted per eye and then averaged. […]

endothelial tip cells = assay: Filopodia number and length on endothelial tip cells, OIR mouse model; type: in vivo, C57BL/6J mice; conditions: OIR mice injected with YC-1 [25-100 μl], vs DMSO-treated retinas
Method: FIG. 4 the Influence of YC-1 on filopodia number and length. […] Image of tip cells along the leading edge of vascularization from; [A] Non-treated ischemic retinas; [B] DMSO-treated retinas; [C, D, E, and F] represent retinas from animals that were injected with YC-1 [25-100 μl]. Filopodia lengths and number/tip cell were not influenced by DMSO treatment. […] [n=5 per group].
A. Filopodia from DMSO-treated retinas had approximately similar lengths as the nontreated ischemic retinas. […] [ANOVA, ***P<0.001; **P<0.01 between YC-1 and DMSO]. There were 24 tip cells/retina that were averaged. [n=5 per group].
B. DMSO has no influence on the number of filopodia/tip cell. […] [ANOVA, ***P<0.001; **P<0.01 between YC-1 and DMSO]. There were 24 tip cells/retina that were averaged. [n=5 per group].
Retinal NV was induced in newborn mice as described previously. Briefly, P7 mice were exposed with their nursing mother, for 5 days [between P7 and P12] to hyperoxic conditions, by incubating them in an airtight chamber [PROOX 110 chamber O2 controller; Biospherix Ltd., Redfield, N.Y.] ventilated by a mixture of O2 and air to a final oxygen fraction of 75±2%. These incubation conditions induced vaso-obliteration and subsequent cessation of vascular development in the capillary beds of the central retina. […]

[2] = system: ischemic retinas of the OIR mouse model; conditions: refs [16, 18]; cited from earlier work
[3] = system: retinal vasculature in OIR mouse model; assay: Morphometric assessment of retinal vascular density (CD31 staining), OIR mouse model; type: in vivo, C57BL/6J mice; conditions: OIR mice, P17; DMSO 88, normoxic 154
Method: as §1
Retinas were harvested at various time points and fixed with 4% paraformaldehyde (PFA) and methanol followed by blocking in 50% FBS/20% normal goat serum for 1 hour at room temperature. […] Quantitation of PECAM/CD-31 immunostaining was processed morphometrically using Metamorph™ imaging software [Universal Imaging, Sunnyvale, Calif.] to determine the area of positive staining for YC-1-treatedt vs. control group. […] All results were expressed as meant S.E.M. Differences were considered statistically significant at **P<0.01.

ischemic retinas = assay: Immunohistochemical analysis, in vivo (OIR retinas); parameters: species or system C57BL/6J mice; conditions: OIR mice, vs DMSO-treated retinas
Method: Retinal NV was induced in newborn mice as described previously. Briefly, P7 mice were exposed with their nursing mother, for 5 days [between P7 and P12] to hyperoxic conditions, by incubating them in an airtight chamber [PROOX 110 chamber O2 controller; Biospherix Ltd., Redfield, N.Y.] ventilated by a mixture of O2 and air to a final oxygen fraction of 75±2%. These incubation conditions induced vaso-obliteration and subsequent cessation of vascular development in the capillary beds of the central retina. At P12, the mice were allowed to recover in normal room air conditions and maintained for another 5 days [till P17], the day in which peak disease occurs. A condition of relative hypoxia resulted between P12 and P17, and extensive retinal NV developed in 100% of the mice. Age-matched animals with the hyperoxia-exposed groups were maintained identically, except they were exposed to room air […], 79% N2] for the entire duration of the experiment. All animals were examined and sacrificed on the same days.
A group of hyperoxia-exposed animals [n=15] were injected intravitreally [into both eyes] at P12 and P15 with 3 μl of YC-1 [100 μM] [drug-treated group]. Another group of hyperoxiaexposed mice [n=15] were injected intravitreally [into both eyes] at P12 and P15 with 3 μl of DMSO [0.2% [v/v]] [mock-treated group]. Non-treated mice grown under ambient conditions, non-treated hyperoxia-exposed mice, DMSO-treated hyperoxia-exposed mice and YC-1-treated hyperoxia-exposed mice, were all examined at different critical time points for qualitative assessment of the retinal vasculature by fluorescein angiography.
Mouse retinas were dissected and prepared for immunohistochemical analysis, fixed in 4% paraformaldehyde in 0.1 M PBS for 15 min at room temperature and embedded in paraffin, sectioned [5 μm]. Tissue sections were deparaffinized, hydrated, and later exposed to heat induced antigen retrieval using a microwave oven [three 5-minute cycles in citrate buffer, pH 6.0], endogenous peroxidase was abolished with methanol, and hydrogen peroxide and nonspecific background staining was blocked by incubating the tissue sections for 5 minutes in normal swine serum. Subsequently, all slides were washed three times in PBS, and incubated for 1 hour with primary anti-[HIF-1α, VEGF, PDGF-B, GFAP, iNOS, and β-actin] antibodies. The sections were washed with TBST and incubated with EnVision Polymer HRP secondary antibody [DAKO, Carpinteria, Calif.] for 30 minutes. All slides were stained with DAB solution and counterstained with hematoxylin. Slides were cover slipped [Permount; Fisher Scientific, Fairlawn, N.J.] and examined by light microscopy. Negative controls were performed by omitting the primary antibodies. Sections were photographed under a microscope [Zeiss Axiovert 135, Thornwood, N.Y.], and images were acquired a digital camera [AxioCam, N.Y.]. All retinas were examined at X60 objective. The staining intensity in our series ranged from a weak blush to moderate or strong. The amount of cells staining with the antibody was further categorized as focal [<10%], patchy [10%-50%], and diffuse [>50%]. For meaningful semiquantitative analysis, focal and/or weak staining was considered equivocal staining, and patchy or diffuse staining was either subcategorized as either moderate or strong staining. All Immunohistochemical analyses were measured by Metamorph digital image software [Molecular Devices, Sunnyvale, Calif.].

## OCc1ccc(-c2nn(Cc3ccccc3)c3ccccc23)o1 [YC-1, 3-(5′-hydroxymethyl-2′-furyl)-1-benzylindazole]
[1]
  average number of neovascular nuclei (pre-retinal, anterior to ILM): 11±1.8
Endothelial tip cells
  number of filopodia on endothelial tip cells: significantly and dose-dependently reduced
  total length of filopodia on endothelial tip cells: significantly and dose-dependently reduced
[2]
  HIF-1 and other proangiogenic factors [VEGF, MMP-9, ET-1, and EPO]: inhibits
R28 cells
  cell viability (DAPI exclusion): comprised the majority of cells
[3]
  mean vascular density (endothelial cells per reticle square, CD31): 148±2
Ischemic retinas
  GFAP immunoexpression in retina: significant down-regulation
  HIF-1 immunoexpression in retina: significant inhibition
  PDGF-B immunoreactivity in retina: significantly inhibited
  VEGF immunoexpression in retina: significant inhibition
  iNOS immunoreactivities in retina: significantly down-regulated
